For five compounds, mutagenic call results are on record in PubChem BioAssay AID1259407 (Chemical Carcinogenesis Research Information System (CCRIS), 2018).

The test system of the series is CCRIS mutagenicity, Ames/micronucleus/aberration tests. Put plainly: CCRIS mutagenicity studies.
Where [1] appears, read: Test System: AMES SALMONELLA TYPHIMURIUM, Strain/Indicator: TA98, Metabolic Activation: NONE, Method: PREINCUBATION
Where [2] appears, read: Test System: AMES SALMONELLA TYPHIMURIUM, Strain/Indicator: TA100, Metabolic Activation: NONE, Method: PREINCUBATION

Activity calls are given as the source filed them. How the calls were made is not given here.

`c1ccc2cnncc2c1`: the mutagenic call is “inactive; negative” (Test System: AMES SALMONELLA TYPHIMURIUM, Strain/Indicator: TA98, Metabolic Activation: HAMSTER, LIVER, S-9, AROCLOR 1254, Method: STANDARD PLATE); “inactive; negative” under setting [1]; “inactive; negative” (Test System: AMES SALMONELLA TYPHIMURIUM, Strain/Indicator: TA98, Metabolic Activation: NONE, Method: STANDARD PLATE); “inactive; negative” (Test System: AMES SALMONELLA TYPHIMURIUM, Strain/Indicator: TA98, Metabolic Activation: RAT, LIVER, S-9, AROCLOR 1254, Method: STANDARD PLATE); “inactive; negative” (Test System: AMES SALMONELLA TYPHIMURIUM, Strain/Indicator: TA98, Metabolic Activation: RAT, LIVER, S-9, PCB, Method: PREINCUBATION); “inactive; negative” (Test System: AMES SALMONELLA TYPHIMURIUM, Strain/Indicator: TA100, Metabolic Activation: HAMSTER, LIVER, S-9, AROCLOR 1254, Method: STANDARD PLATE). The mutagenic call is, setting by setting: under setting [2], “inactive; negative”; (Test System: AMES SALMONELLA TYPHIMURIUM, Strain/Indicator: TA100, Metabolic Activation: NONE, Method: STANDARD PLATE) “inactive; negative”; (Test System: AMES SALMONELLA TYPHIMURIUM, Strain/Indicator: TA100, Metabolic Activation: RAT, LIVER, S-9, AROCLOR 1254, Method: STANDARD PLATE) “inactive; negative”; (Test System: AMES SALMONELLA TYPHIMURIUM, Strain/Indicator: TA100, Metabolic Activation: RAT, LIVER, S-9, PCB, Method: PREINCUBATION) “inactive; negative”; (Test System: AMES SALMONELLA TYPHIMURIUM, Strain/Indicator: TA1535, Metabolic Activation: HAMSTER, LIVER, S-9, AROCLOR 1254, Method: STANDARD PLATE) “inactive; negative”; (Test System: AMES SALMONELLA TYPHIMURIUM, Strain/Indicator: TA1535, Metabolic Activation: NONE, Method: STANDARD PLATE) “inactive; negative”. Also, the mutagenic call was “inactive; negative” (Test System: AMES SALMONELLA TYPHIMURIUM, Strain/Indicator: TA1535, Metabolic Activation: RAT, LIVER, S-9, AROCLOR 1254, Method: STANDARD PLATE); “inactive; negative” (Test System: AMES SALMONELLA TYPHIMURIUM, Strain/Indicator: TA1537, Metabolic Activation: HAMSTER, LIVER, S-9, AROCLOR 1254, Method: STANDARD PLATE); “inactive; negative” (Test System: AMES SALMONELLA TYPHIMURIUM, Strain/Indicator: TA1537, Metabolic Activation: NONE, Method: STANDARD PLATE); “inactive; negative” (Test System: AMES SALMONELLA TYPHIMURIUM, Strain/Indicator: TA1537, Metabolic Activation: RAT, LIVER, S-9, AROCLOR 1254, Method: STANDARD PLATE); “inactive; negative” (Test System: AMES SALMONELLA TYPHIMURIUM, Strain/Indicator: TA1538, Metabolic Activation: HAMSTER, LIVER, S-9, AROCLOR 1254, Method: STANDARD PLATE); “inactive; negative” (Test System: AMES SALMONELLA TYPHIMURIUM, Strain/Indicator: TA1538, Metabolic Activation: NONE, Method: STANDARD PLATE). Moreover, the mutagenic call (Test System: AMES SALMONELLA TYPHIMURIUM, Strain/Indicator: TA1538, Metabolic Activation: RAT, LIVER, S-9, AROCLOR 1254, Method: STANDARD PLATE) is “inactive; negative”; the mutagenic call (Test System: MOUSE LYMPHOMA, Strain/Indicator: L5178Y (TK+/TK-), Metabolic Activation: NONE, Method: SUSPENSION/PLATE) is “active; positive. reevaluation of results: equivocal”; the mutagenic call (Test System: MOUSE LYMPHOMA, Strain/Indicator: L5178Y (TK+/TK-), Metabolic Activation: RAT, LIVER, S-9, AROCLOR 1254, Method: SUSPENSION/PLATE) was “active; positive. reevaluation of results: positive”.
As to `CNc1ccc2nc3ccc(=[N+](C)C)cc-3sc2c1`, the mutagenic call is “active; positive” (Test System: Ames Salmonella typhimurium, Strain/Indicator: TA98, Metabolic Activation: None, Method: Preincubation); “active; positive” (Test System: Ames Salmonella typhimurium, Strain/Indicator: TA98, Metabolic Activation: Rat, Liver, S-9, Aroclor 1254 (10%), Method: Preincubation); “active; positive” (Test System: Ames Salmonella typhimurium, Strain/Indicator: TA100, Metabolic Activation: None, Method: Preincubation); “active; positive” (Test System: Ames Salmonella typhimurium, Strain/Indicator: TA100, Metabolic Activation: Rat, Liver, S-9, Aroclor 1254 (10%), Method: Preincubation); “active; positive” (Test System: E. coli, Strain/Indicator: WPM uvrA/pKM101, Metabolic Activation: None, Method: Preincubation); “active; positive” (Test System: E. coli, Strain/Indicator: WPM uvrA/pKM101, Metabolic Activation: Rat, Liver, S-9, Aroclor 1254 (10%), Method: Preincubation).
Regarding `c1ccc2n[nH]nc2c1`, the mutagenic call (Test System: AMES SALMONELLA TYPHIMURIUM, Strain/Indicator: TA97, Metabolic Activation: HAMSTER, LIVER, S-9, AROCLOR 1254 (10%), Method: PREINCUBATION) is “inactive; negative”; the mutagenic call (Test System: AMES SALMONELLA TYPHIMURIUM, Strain/Indicator: TA97, Metabolic Activation: NONE, Method: PREINCUBATION) was “inactive; negative”; the mutagenic call (Test System: AMES SALMONELLA TYPHIMURIUM, Strain/Indicator: TA97, Metabolic Activation: RAT, LIVER, S-9, AROCLOR 1254 (10%), Method: PREINCUBATION) is “inactive; negative”; the mutagenic call (Test System: AMES SALMONELLA TYPHIMURIUM, Strain/Indicator: TA98, Metabolic Activation: HAMSTER, LIVER, S-9, AROCLOR 1254 (10%), Method: PREINCUBATION) was “inactive; negative”; the mutagenic call under setting [1] was “inactive; negative”; the mutagenic call (Test System: AMES SALMONELLA TYPHIMURIUM, Strain/Indicator: TA98, Metabolic Activation: RAT, LIVER, S-9, AROCLOR 1254 (10%), Method: PREINCUBATION) was “inactive; negative”. The mutagenic call runs as follows: (Test System: AMES SALMONELLA TYPHIMURIUM, Strain/Indicator: TA100, Metabolic Activation: HAMSTER, LIVER, S-9, AROCLOR 1254 (10%), Method: PREINCUBATION) “inactive; negative”; under setting [2], “inactive; negative”; (Test System: AMES SALMONELLA TYPHIMURIUM, Strain/Indicator: TA100, Metabolic Activation: RAT, LIVER, S-9, AROCLOR 1254 (10%), Method: PREINCUBATION) “inactive; negative”; (Test System: AMES SALMONELLA TYPHIMURIUM, Strain/Indicator: TA1535, Metabolic Activation: HAMSTER, LIVER, S-9, AROCLOR 1254 (10%), Method: PREINCUBATION) “active; positive”; (Test System: AMES SALMONELLA TYPHIMURIUM, Strain/Indicator: TA1535, Metabolic Activation: NONE, Method: PREINCUBATION) “inactive; negative”; (Test System: AMES SALMONELLA TYPHIMURIUM, Strain/Indicator: TA1535, Metabolic Activation: RAT, LIVER, S-9, AROCLOR 1254 (10%), Method: PREINCUBATION) “active; positive”. Also, the mutagenic call (Test System: E. COLI, Strain/Indicator: WP2 UVRA, Metabolic Activation: MOUSE, LIVER, S-9, AROCLOR 1254, Method: STANDARD PLATE) is “inactive; negative”.
Turning to `O=CNc1nc(-c2ccc([N+](=O)[O-])cc2)cs1`, the mutagenic call is, setting by setting: (Test System: AMES SALMONELLA TYPHIMURIUM, Strain/Indicator: TA98, Metabolic Activation: RAT, LIVER, S-9, KC500 OR PHENOBARBITAL, Method: LIQUID SUSPENSION) “active; positive”; (Test System: AMES SALMONELLA TYPHIMURIUM, Strain/Indicator: TA100, Metabolic Activation: RAT, LIVER, S-9, KC500 OR PHENOBARBITAL, Method: LIQUID SUSPENSION) “active; positive”.
`Cc1c(N)cccc1N=[N+]([O-])c1cccc(N)c1C`: the mutagenic call is “inactive; negative” under setting [1]; “active; positive” (Test System: AMES SALMONELLA TYPHIMURIUM, Strain/Indicator: TA98, Metabolic Activation: RAT, LIVER, S-9, PHENOBARBITAL AND 5,6-BENZOFLAVONE, Method: PREINCUBATION); “inactive; negative” under setting [2]; “inactive; negative” (Test System: AMES SALMONELLA TYPHIMURIUM, Strain/Indicator: TA100, Metabolic Activation: RAT, LIVER, S-9, PHENOBARBITAL AND 5,6-BENZOFLAVONE, Method: PREINCUBATION).
